Laboratory results: patent US20260109721A1, “IONIZABLE CATIONIC LIPIDS INCORPORATING SILICON: SYNTHESIS AND LNP FORMULATION” (priority 2023, published 2026)

Experiments:
[1] = Encapsulation efficiency of loaded LNPs, RiboGreen RNA assay (Method A); format: physicochemical; conditions: encapsulation efficiency of mRNA-loaded LNP, Method A, RiboGreen
Experimental: (§1) The synthesized lipids were tested in term of in vitro transfection efficacy and toxicity on HeLa cells. In order to perform the mentioned biological tests, appropriate LNPs had to be formulated from the synthesized lipids. The formulation technique was different in Method A and B. The particle size, polydispersity index (PDI) and zeta potential of resulting LNPs were determined by means of Dynamic Light Scattering technique (DLS). Prior to biological testing the encapsulation efficiency (EE) of the loaded LNPs was determined by using RiboGreen RNA assay. In case of Method A Luc mRNA while in case of Method B GFP mRNA was transfected into the cells. In parallel with the transfection experiments, toxicity of the investigated LNPs was determined, in case of Method A resazurin assay while in case of Method B MTT assay was used. Additionally, the toxicity of the lipids was investigated on HepG2 cells and IC50 values were determined.
• 1. Preparation of sample stock solutions: In the top row of the 96-well plate (Row A in the plate), add 297 μL of TE buffer pH 7.4 (see Table 1) to a single well for each sample plus a single well for a PBS blank using a multichannel pipette.
• 2. Add 3 μL of sample (at 0.5 mg/ml) to these wells for a final volume of 300 μL. Add 3 μL of PBS to the blank well. Pipette to mix. This is your stock solution for each sample. The final RNA concentration of these stock solutions should be approximately 4-7 μg/mL. • 3. mRNA-LNP sample setup: • a. Add 50 μL of TE buffer pH 7.5 to the two wells directly below each sample (Rows B and C in the plate). • b. Add 50 μL of sample stock solution from Row A into the wells in Rows B and C (this assay is run in duplicate. All liquid handling should be done using a multichannel pipette). • c. Add 50 μL of Triton buffer to the wells in Rows D and E (in the plate) below each sample. • d. Add 50 μL of sample stock solution from Row A into the wells in Rows D and E. • 4. RiboGreen RNA standard curve setup: Dilute the RNA standard to produce an RNA stock at a final concentration of 20 μg/mL in TE buffer pH 7.4. The final volume should be 150 μL. Set up a standard curve (in duplicate) as using the RNA stock (20 μg/mL siRNA), TE buffer pH 7.5, and Triton X-100 buffer according the Table 2 and Table 3 below.
• 5. Once samples and standard curve are plated, incubate the plate at 37° C. for 10 min to lyse mRNA-LNP in the presence of Triton X-100 buffer. • 6. Meanwhile, prepare RiboGreen Solution: Sum the total number of sample wells and standard curve wells. Add three to this number, and multiply the total by 100. This is the total volume, in μL, of RiboGreen Solution needed for this assay. In a 15 mL RNAse-free Falcon tube, dilute the RiboGreen Reagent 1:100 into TE buffer pH 7.5 to the total volume calculated. • 7. Addition of RiboGreen Solution and sample readings: Remove a 96-well plate from 37° C. incubator; let it cool to room temperature as RiboGreen binding is somewhat temperature dependent. Add 100 μL of RiboGreen Solution to each well. Pop any air bubbles with a needle. Read using fluorescent plate reader (excitation=480, emission=525). • 8. Sample analysis: Use the data generated by the RiboGreen standard curve to calculate the concentration of mRNA. Transfection Efficiency with Luciferase-mRNA (Method A)

[2] = LNP size, PDI and zeta potential by Dynamic Light Scattering (Method A); format: physicochemical; conditions: LNP formulated with the lipid, DLS
Experimental: as §1
• 1. If needed, prepare stock solutions by solving known amounts of lipid powder into an appropriate solvent. The recommended solvent is ethanol and the recommended concentration is typically in the range 10-50 mM. Higher concentrations are preferred to allow flexibility on mRNA-LNP concentration. • 2. Remove the lipid stock solutions from the −20° C. freezer. For long-term storage, −80° C. is used. • 3. Check the vials for precipitation, DOPE (CAS #4004-05-1) (20 mM) and DSPE-PEG (CAS #474922-26-4) (5 mM) may need a 5-30 minute incubation step at 37° C. with intermittent vortexing to resuspend all contents. […] As a last resort, lipids may be heated to 50° C. to resuspend, time should be kept as short as possible to prevent oxidation or other modifying or degradative processes. • 4. Mix the lipids by vortexing for 2 minutes. • 5. […] Cooling the solution prevent excessive evaporation of ethanol or similar solvents upon opening. • 6. Meanwhile, thaw the RNA samples, including the latest SecNLuc control, by inserting the frozen tube in a room temperature aluminium block. • 7. Prepare for each LNP-formulation with identical mRNA component, an RNA master mix according to Table 1 below in a fresh tube. Use of a master mix allows more precise comparison of lipid formulations relative to each other. Split the master mix over a number of fresh tubes equal to the number of samples+controls. Each tube contains 375 μl of mRNA in 10 mM Citrate pH 4.0. • 8. Prepare for each LNP formulation with identical lipid composition a Lipid master mix according to Table 1 below in a fresh tube, exclude the lipid of interest. Use of a master mix allows more precise comparison of the novel ionizable lipid relative to each other. Split the master mix over a number of fresh tubes equal to the number of samples+controls. Each tube contains 65.5 μl of lipid master mix. • 9. Add the ionizable lipid of interest to the equally divide lipid master mix. Mix well by pipetting up and down. Label the tube according to the ionizable lipid used. • 10. Power on the L1 FM (L1 Formulation Machine uses 2 high-speed syringe pumps to mix lipids in organic solvents with mRNA in acidic aquous solution to generate well-defined LNPs. The microfluidic mixing chip involves a dean-type structure performing the high-efficiency mixing at a total flow rate (TFR) of around 12 ml/min at a 3:1 mixing ratio) and allow it to do a calibration of motor positions.
• 18. Fill a fresh syringe (C) through a blunt 18G stainless steel needle with the previously prepared RNA mixture of step 6. The volume should be approximately 85% of total formulation volume+25 μl (dead-volume). Make sure to remove all air bubbles by tapping. • 19. Fill a fresh syringe (D) through a blunt 18G stainless steel needle with the Lipid master mix. The volume should be approximately […] of total formulation volume+25 μl (dead-volume). Again, Make sure to remove all bubbles. • 20. Attach the syringes in the correct orientation, syringe A on the left and syringe B on the right • 21.

SMILES | EE (%) [1] | PDI [2] | Size (nm) [2] | Zeta potential (mV) [2]
CCCCCCCCC(CCCCCC)C(=O)OCCCCCCN(CCCCO)CCCCCCOC(=O)C(CCCCCC)CCCCCCCC (stereo not shown) [ALC-0315, reference compound] | 94% | 0.007 | 131.9 nm | −12.32 mV
CCCCC/C=C\C/C=C\CCCCCCCCOC(CCCCCN(CCO)CCO)O[Si](C)(C)OCCCCCCCC/C=C\C/C=C\CCCCC (stereo not shown) [Example 39, (21Z,24Z)-3-(2-hydroxyethyl)-11,11-dimethyl-9-(((9Z,12Z)-octadeca-9,12-dien-1-yl)oxy)-10,12-dioxa-3-aza-11-silatriaconta-21,24-dien-1-ol] | 87% | 0.072 | 170.4 nm | −9.414 mV
CCCCC/C=C\C/C=C\CCCCCCCCO[Si](C)(C)OC(CCCCCCC/C=C\C/C=C\CCCCC)OCCCCCCN(CCO)CCO (stereo not shown) [Example 40, (23Z,26Z)-11-((8Z,11Z)-heptadeca-8,11-dien-1-yl)-3-(2-hydroxyethyl)-13,13-dimethyl-10,12,14-trioxa-3-aza-13-siladotriaconta-23,26-dien-1-ol] | 87% | 0.020 | 152.7 nm | −8.912 mV
CCCCCCCC/C=C\CCCCCCCCOC(CCCCCCCCCCCCCCC)O[Si](C)(C)OCCCCCCN(CCO)CCO (stereo not shown) [Example 41, (Z)-3-(2-hydroxyethyl)-11,11-dimethyl-13-pentadecyl-10,12,14-trioxa-3-aza-11-siladotriacont-23-en-1-ol] | 78% | 0.031 | 144.2 nm | −8.54 mV
CCCCCCCC/C=C\CCCCCCCC(OCCCCCCCCCCCCCCCC)O[Si](C)(C)OCCCCCCN(CCO)CCO (stereo not shown) [Example 42, (Z)-13-(heptadec-8-en-1-yl)-3-(2-hydroxyethyl)-11,11-dimethyl-10,12,14-trioxa-3-aza-11-silatriacontan-1-ol] | 87% | 0.059 | 129.0 nm | −8.408 mV
CCCCC/C=C\C/C=C\CCCCCCCCOC(CCCCCCCCCCCCCCC)O[Si](C)(C)OCCCCCCN(CCO)CCO (stereo not shown) [Example 43, (23Z,26Z)-3-(2-hydroxyethyl)-11,11-dimethyl-13-pentadecyl-10,12,14-trioxa-3-aza-11-siladotriaconta-23,26-dien-1-ol] | 83% | 0.006 | 144.9 nm | −7.944 mV
CCCCC/C=C\C/C=C\CCCCCCCC(OCCCCCCCCCCCCCCCC)O[Si](C)(C)OCCCCCCN(CCO)CCO (stereo not shown) [Example 44, 13-((8Z,11Z)-heptadeca-8,11-dien-1-yl)-3-(2-hydroxyethyl)-11,11-dimethyl-10,12,14-trioxa-3-aza-11-silatriacontan-1-ol] | 82% | 0.083 | 131.2 nm | −8.273 mV
CCCCC/C=C\C/C=C\CCCCCCCC(OCCCCCCCC/C=C\CCCCCCCC)O[Si](C)(C)OCCCCCCN(CCO)CCO (stereo not shown) [Example 45, (Z)-13-((8Z,11Z)-heptadeca-8,11-dien-1-yl)-3-(2-hydroxyethyl)-11,11-dimethyl-10,12,14-trioxa-3-aza-11-siladotriacont-23-en-1-ol] | 82% | 0.043 | 136.8 nm | −8.85 mV
CCCCC/C=C\C/C=C\CCCCCCCCOC(CCCCCCC/C=C\CCCCCCCC)O[Si](C)(C)OCCCCCCN(CCO)CCO (stereo not shown) [Example 46, (23Z,26Z)-13-((Z)-heptadec-8-en-1-yl)-3-(2-hydroxyethyl)-11,11-dimethyl-10,12,14-trioxa-3-aza-11-siladotriaconta-23,26-dien-1-ol] | 81% | 0.095 | 129.4 nm | −7.772 mV
CCCCCCCC/C=C\CCCCCCCCOC(CCCCCCC/C=C\CCCCCCCC)O[Si](C)(C)OCCCCCCN(CCO)CCO (stereo not shown) [Example 47, (Z)-13-((Z)-heptadec-8-en-1-yl)-3-(2-hydroxyethyl)-11,11-dimethyl-10,12,14-trioxa-3-aza-11-siladotriacont-23-en-1-ol] | 88% | 0.014 | 125.0 nm | −8.469 mV
CCCCC/C=C\C/C=C\CCCCCCCCOC(CCCCCCC/C=C\C/C=C\CCCCC)O[Si](C)(C)OCCCCCCN(CCO)CCO (stereo not shown) [Example 48, (23Z,26Z)-13-((8Z,11Z)-heptadeca-8,11-dien-1-yl)-3-(2-hydroxyethyl)-11,11-dimethyl-10,12,14-trioxa-3-aza-11-siladotriaconta-23,26-dien-1-ol] | 85% | 0.052 | 149.6 nm | −7.501 mV
CCCCCCCCCCCCCCCCOC(CCCCCCCCCCCCCCC)O[Si](C)(C)OCCCCCCN(CCO)CCO (stereo not shown) [Example 49, 3-(2-hydroxyethyl)-11,11-dimethyl-13-pentadecyl-10,12,14-trioxa-3-aza-11-silatriacontan-1-ol] | 84% | 0.396 | 171.9 nm | −12.77 mV
CCCCCCCC/C=C\CCCCCCCC(OCC(CCCCCC)CCCCCCCC)O[Si](C)(C)OCCCCCCN(CCO)CCO (stereo not shown) [Example 50, (Z)-13-(heptadec-8-en-1-yl)-16-hexyl-3-(2-hydroxyethyl)-11,11-dimethyl-10,12,14-trioxa-3-aza-11-silatetracosan-1-ol] | 86% | 0.022 | 153.8 nm | −10.38 mV
